TGI and GI50 data for twelve molecules are collected here from PubChem BioAssay (NCI).

Several values for one entry are separate records, joined by “and”; a condition that tells them apart may be missing. Equal entries are not always repeated.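 Five compound concentrations were applied to cells in 96-well plates for 48 hours; endpoints were derived by simple linear interpolation of the resulting dose-response curve. GI50 is the concentration that inhibits growth by half. TGI: total growth inhibition.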 A value given as a limit tells only on which side of the number the result lay.

Assay in all cases: NCI tumour cell line growth inhibition, 48 h
The test system of assay [1] is MCF7 breast.
For assay [2], the system named is T-47D breast.
The test system of assay [3] is PC-3 prostate.
The subject of assay [4] is BT-549 breast.
Assay [5] has as its system HS 578T breast.
For assay [6], the system named is MDA-MB-231 breast.

Consider `CCOC(=O)CCc1cc(=O)oc2cc(O)cc(O)c12`, for which the TGI in assay [1], in assay [2], in assay [3], in assay [4], in assay [5] and in assay [6] was above 100 µM throughout.
Regarding `O=C1c2c(c3c4ccccc4n(CCCCCCBr)c3c3[nH]c4ccccc4c23)C(=O)N1O`, the GI50 in assay [2] was 1.74 µM; in assay [4] it was 1.83 µM; in assay [5], 5.14 µM; in assay [6], 2.9 µM. For the same molecule, the TGI was determined as 7.44 µM in assay [2], 6.53 µM in assay [4], 45.9 µM in assay [5] and 9.52 µM in assay [6].
For the molecule `Cc1ccc(S(=O)(=O)N(CCOc2ccc(/C(N)=N/Cl)cc2)CCOc2ccc(/C(N)=N\Cl)cc2)cc1`, the GI50 in assay [1] was 8.08 µM; in assay [2], 15.3 µM; in assay [3], 33.7 µM; in assay [4], 14.1 µM; in assay [5] it was 4.28 µM; in assay [6], 44.4 µM. Moreover, the TGI is above 100 µM in assay [1]; 81.7 µM in assay [2]; above 100 µM in assay [3]; 36.6 µM in assay [4]; 22.7 µM in assay [5]; above 100 µM in assay [6].
As for `COC(=O)c1cc2c3ccccc3[nH]c2c2ncccc12`, the GI50 in assay [1] is 14.4 µM; in assay [2], 3.12 µM; in assay [3], above 100 µM; in assay [4], 17.9 µM; in assay [5] it was 15.4 µM; in assay [6], 63.9 µM. The TGI in assay [1] was above 100 µM; in assay [2], above 100 µM; in assay [3], above 100 µM; in assay [4], 78.8 µM; in assay [5], 87 µM; in assay [6] it was above 100 µM.
For the molecule `CCOC(=O)/C=C(/C(=O)OCC)n1cc(Cl)c(=O)n(CC(=O)OCC)c1=O`, the TGI in assay [1] was 46.3 µM; in assay [2] it was 18.9 µM and 4.28 µM; in assay [3], 9.64 µM and 34.6 µM; in assay [4], 10.6 µM and 37.8 µM; in assay [6], 10.7 µM and 36.8 µM. Moreover, the GI50 is 1.31 µM in assay [2], 19.5 µM in assay [3] and 20.6 µM in assay [6].
Consider `CSc1ccc(C2=NN(C(C)=O)C(c3cc(C)cs3)C2)cc1` (stereo not given), for which the GI50 is 16.2 µM in assay [1]; 13 µM in assay [2]; 20.2 µM in assay [3]; 17.1 µM in assay [4]; 22.3 µM in assay [5]; 27.5 µM in assay [6]. Also, the TGI was 46.3 µM in assay [1]; above 100 µM in assay [2]; 95.6 µM in assay [3]; 63.7 µM in assay [4]; 88.6 µM in assay [5]; above 100 µM in assay [6].
In the case of `CCCCC/C(C=C(C#N)C#N)=C/c1ccccc1`, the GI50 in assay [1] was 3.46 µM; in assay [2] it was 4.93 µM; in assay [3], 3.13 µM; in assay [4] it was 2.52 µM; in assay [5], 1.87 µM; in assay [6], 3.85 µM. The TGI in assay [1] stood at 17.4 µM; in assay [2] it was 26.1 µM; in assay [3] it was 12.2 µM; in assay [4], 8.75 µM; in assay [5], 4.76 µM; in assay [6] it was 16.2 µM.
For the molecule `COc1ccc2c(c1)c(-c1nc(-c3cn(C)c4ncccc34)cs1)cn2CCCN1CCCCC1`, the GI50 in assay [1] was 1.7 µM; in assay [2], 1.83 µM; in assay [3] it was 1.76 µM; in assay [4], 4.91 µM; in assay [5], 2.24 µM; in assay [6], 1.78 µM. The TGI in assay [1] was determined as 3.32 µM; in assay [2] it was 4.28 µM; in assay [3] it was 3.27 µM; in assay [4] it was 19.5 µM; in assay [5], 5.8 µM; in assay [6] it was 3.37 µM.
In the case of `COC(=O)CCCCN=Cc1c(O)c(O)c(C(C)C)c2cc(C)c(-c3c(C)cc4c(C(C)C)c(O)c(O)c(C=NCCCCC(=O)OC)c4c3O)c(O)c12`, the GI50 was 0.917 µM in assay [1]; 0.692 µM in assay [2]; 0.787 µM in assay [3]; 1.5 µM in assay [4]; 1.49 µM in assay [5]; 1.08 µM in assay [6]. The TGI was 6.26 µM in assay [1]; 8.04 µM in assay [2]; above 32.5 µM in assay [3]; 23.8 µM in assay [4]; above 32.5 µM in assay [5]; 12.1 µM in assay [6].
Consider `N#C/C(=C1C=C/C(=N/O)C(Br)=C/1)c1ccccc1`, for which the GI50 in assay [1] is 0.323 µM; in assay [2], 2.19 µM; in assay [3] it was 0.568 µM; in assay [4], 9.59 µM; in assay [5], 2.52 µM; in assay [6], 2.27 µM. The TGI in assay [1] worked out at 11.3 µM; in assay [2], 20.6 µM; in assay [3], 6.33 µM; in assay [4] it was 27.3 µM; in assay [5], 8.09 µM; in assay [6], 6.73 µM.
With `CC1OC(O[C@H]2C[C@@H](O)[C@]3(CO)[C@H]4[C@H](O)C[C@]5(C)[C@@H](C6=CC(=O)OC6)CC[C@]5(O)[C@@H]4CC[C@]3(O)C2)C(O)C(O)C1O` (stereo not given in full), the GI50 was 22.9 µM in assay [1]; 24.9 µM in assay [2]; 20.4 µM in assay [3]; 18 µM in assay [4]; 25.6 µM in assay [5]; 21 µM in assay [6]. In addition, the TGI in assay [1] was found to be 42.7 µM; in assay [2], 51.5 µM; in assay [3], 41.4 µM; in assay [4], 32.7 µM; in assay [5] it was 65.9 µM; in assay [6] it was 40.5 µM.
For `O=C1/C(=C/c2ccc(Br)cc2)C=C(c2ccccc2)N1CCc1ccccc1`, the GI50 was 3.42 µM in assay [1]; 13.3 µM in assay [2]; 1.2 µM in assay [3]; 2.59 µM in assay [4]; 0.831 µM in assay [5]; 1.67 µM in assay [6]. Moreover, the TGI was 32.7 µM in assay [1]; above 100 µM in assay [2]; 5.06 µM in assay [3]; 9.06 µM in assay [4]; 5.33 µM in assay [5]; 24.7 µM in assay [6].
